Laboratory results taken from patent publication US9125913B2, “Bcl-2-selective apoptosis-inducing agents for the treatment of cancer and immune diseases” (AbbVie Inc., priority 2008, dated 2015).

The molecules below were run on GST-Bcl-2 (assay: TR-FRET binding assay, Bcl-2). Details: TR-FRET Ki values.
Method in brief: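 Compounds serially diluted in DMSO from 50 μM (2× starting concentration, 10% DMSO), mixed with GST-tagged protein, F-Bak peptide probe and Tb-labeled antibody, incubated 3 h at room temperature.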
With `CC1(C)CCC(CN2CCN(c3ccc(C(=O)NS(=O)(=O)c4ccc(NCC5CN(C6CC6)CCO5)c([N+](=O)[O-])c4)c(Oc4cccc5[nH]ncc45)c3)CC2)=C(c2ccc(Cl)cc2)C1` (stereo not shown) [EXAMPLE 411, 4-(4-{[2-(4-chlorophenyl)-4,4-dimethylcyclohex-1-en-1-yl]methyl}piperazin-1-yl)-N-[(4-{[(4-cyclopropylmorpholin-2-yl)methyl]amino}-3-nitrophenyl)sulfonyl]-2-(1H-indazol-4-yloxy)benzamide] the “Binding selectivity ratio (Bcl-XL Ki/Bcl-2 Ki)” value (from here on “Binding selectivity ratio”) was 2352. For `CC1(C)CCC(CN2CCN(c3ccc(C(=O)NS(=O)(=O)c4ccc(NC5CCCCC5N)c([N+](=O)[O-])c4)c(Oc4ccc5[nH]ccc5c4)c3)CC2)=C(c2ccc(Cl)cc2)C1` (stereo not shown) [EXAMPLE 208, N-({4-[(2-aminocyclohexyl)amino]-3-nitrophenyl}sulfonyl)-4-(4-{[2-(4-chlorophenyl)-4,4-dimethylcyclohex-1-en-1-yl]methyl}piperazin-1-yl)-2-(1H-indol-5-yloxy)benzamide], the “Binding selectivity ratio” value was >1120.6. In the case of `CN(C)CCCc1cccc(-c2ccc(Cl)cc2)c1CN1CCN(c2ccc(C(=O)NS(=O)(=O)c3ccc(NCC4CCOCC4)c([N+](=O)[O-])c3)c(Oc3cccc4[nH]ccc34)c2)CC1` [EXAMPLE 196, 4-[4-({4′-chloro-3-[3-(dimethylamino)propyl]-1,1′-biphenyl-2-yl}methyl)piperazin-1-yl]-2-(1H-indol-4-yloxy)-N-({3-nitro-4-[(tetrahydro-2H-pyran-4-ylmethyl)amino]phenyl}sulfonyl)benzamide], the “Binding selectivity ratio” value is reported as >20552.4. In the case of `CC1(C)CCC(c2ccc(Cl)cc2)=C(CN2CCN(c3ccc(C(=O)NS(=O)(=O)c4ccc(NCCCN5CCOCC5)c([N+](=O)[O-])c4)c(Oc4ccccc4)c3)CC2)C1` [Example 19, 4-(4-{[2-(4-chlorophenyl)-5,5-dimethylcyclohex-1-en-1-yl]methyl}piperazin-1-yl)-N-({4-[(3-morpholin-4-ylpropyl)amino]-3-nitrophenyl}sulfonyl)-2-phenoxybenzamide], the “Binding selectivity ratio” value is reported as 23.6. For `CN(C)CCOc1cccc(-c2ccc(Cl)cc2)c1CN1CCN(c2ccc(C(=O)NS(=O)(=O)c3ccc(NC4CCN(C)CC4)c([N+](=O)[O-])c3)c(Oc3cccc4[nH]ccc34)c2)CC1` [EXAMPLE 205, 4-[4-({4′-chloro-3-[2-(dimethylamino)ethoxy]-1,1′-biphenyl-2-yl}methyl)piperazin-1-yl]-2-(1H-indol-4-yloxy)-N-({4-[(1-methylpiperidin-4-yl)amino]-3-nitrophenyl}sulfonyl)benzamide], the “Binding selectivity ratio” value was 658.6. In the case of `CC1(C)CCC(CN2CCN(c3ccc(C(=O)NS(=O)(=O)c4ccc(NCCN5CCNC(=O)C5)c([N+](=O)[O-])c4)c(Oc4ccc5[nH]ccc5c4)c3)CC2)=C(c2ccc(Cl)cc2)C1` [EXAMPLE 273, 4-(4-{[2-(4-chlorophenyl)-4,4-dimethylcyclohex-1-en-1-yl]methyl}piperazin-1-yl)-2-(1H-indol-5-yloxy)-N-[(3-nitro-4-{[2-(3-oxopiperazin-1-yl)ethyl]amino}phenyl)sulfonyl]benzamide], the “Binding selectivity ratio” value is reported as 2396.1. `CC1(C)CCC(CN2CCN(c3ccc(C(=O)NS(=O)(=O)c4ccc(NC5CCN(CCCO)CC5)c([N+](=O)[O-])c4)c(Oc4cccc5[nH]ccc45)c3)CC2)=C(c2ccc(Cl)cc2)C1` [EXAMPLE 195, 4-(4-{[2-(4-chlorophenyl)-4,4-dimethylcyclohex-1-en-1-yl]methyl}piperazin-1-yl)-N-[(4-{[1-(3-hydroxypropyl)piperidin-4-yl]amino}-3-nitrophenyl)sulfonyl]-2-(1H-indol-4-yloxy)benzamide] was tested, and the “Binding selectivity ratio” value was 170.2. For `CN(C)CC(=O)N1CCO[C@@H](COc2ncc(S(=O)(=O)NC(=O)c3ccc(N4CCN(CC5=C(c6ccc(Cl)cc6)CC(C)(C)CC5)CC4)cc3Oc3cccc4[nH]cnc34)cc2Cl)C1` [EXAMPLE 424, 2-(1H-benzimidazol-4-yloxy)-N-[(5-chloro-6-{[(2R)-4-(N,N-dimethylglycyl)morpholin-2-yl]methoxy}pyridin-3-yl)sulfonyl]-4-(4-{[2-(4-chlorophenyl)-4,4-dimethylcyclohex-1-en-1-yl]methyl}piperazin-1-yl)benzamide], the “Binding selectivity ratio” value was 782.52. In the case of `COC1CCN(c2ccc(S(=O)(=O)NC(=O)c3ccc(N4CCN(CC5=C(c6ccc(Cl)cc6)CC(C)(C)CC5)CC4)cc3Oc3ccc4[nH]ccc4c3)cc2[N+](=O)[O-])CC1` [EXAMPLE 271, 4-(4-{[2-(4-chlorophenyl)-4,4-dimethylcyclohex-1-en-1-yl]methyl}piperazin-1-yl)-2-(1H-indol-5-yloxy)-N-{[4-(4-methoxypiperidin-1-yl)-3-nitrophenyl]sulfonyl}benzamide], the “Binding selectivity ratio” value is reported as >107.2. In the case of `CC1(C)CCC(CN2CCN(c3ccc(C(=O)NS(=O)(=O)c4ccc(OC5CCN(C6CCOCC6)CC5)c([N+](=O)[O-])c4)c(Oc4ccc5[nH]ccc5c4)c3)CC2)=C(c2ccc(Cl)cc2)C1` [EXAMPLE 389, 4-(4-{[2-(4-chlorophenyl)-4,4-dimethylcyclohex-1-en-1-yl]methyl}piperazin-1-yl)-2-(1H-indol-5-yloxy)-N-({3-nitro-4-[(1-tetrahydro-2H-pyran-4-ylpiperidin-4-yl)oxy]phenyl}sulfonyl)benzamide], the “Binding selectivity ratio” value is reported as 685.5. `CC1(C)CCC(CN2CCN(c3ccc(C(=O)NS(=O)(=O)c4ccc(NCCN5CCCCC5=O)c([N+](=O)[O-])c4)c(Oc4ccc5[nH]ccc5c4)c3)CC2)=C(c2ccc(Cl)cc2)C1` [EXAMPLE 267, 4-(4-{[2-(4-chlorophenyl)-4,4-dimethylcyclohex-1-en-1-yl]methyl}piperazin-1-yl)-2-(1H-indol-5-yloxy)-N-[(3-nitro-4-{[2-(2-oxopiperidin-1-yl)ethyl]amino}phenyl)sulfonyl]benzamide] was tested, and the “Binding selectivity ratio” value was >1453.3. `CC1(C)CCC(CN2CCN(c3ccc(C(=O)NS(=O)(=O)c4ccc(NCCN5CCNC(=O)C5)c([N+](=O)[O-])c4)c(Oc4cccc5[nH]ccc45)c3)CC2)=C(c2ccc(Cl)cc2)C1` [EXAMPLE 280, 4-(4-{[2-(4-chlorophenyl)-4,4-dimethylcyclohex-1-en-1-yl]methyl}piperazin-1-yl)-2-(1H-indol-4-yloxy)-N-[(3-nitro-4-{[2-(3-oxopiperazin-1-yl)ethyl]amino}phenyl)sulfonyl]benzamide] was tested, and the “Binding selectivity ratio” value was 1097.2. With `CC1(C)CCC(CN2CCN(c3ccc(C(=O)NS(=O)(=O)c4ccc(NCCCN5CCNC(=O)C5)c([N+](=O)[O-])c4)c(Oc4ccc5[nH]ccc5c4)c3)CC2)=C(c2ccc(Cl)cc2)C1` [EXAMPLE 222, 4-(4-{[2-(4-chlorophenyl)-4,4-dimethylcyclohex-1-en-1-yl]methyl}piperazin-1-yl)-2-(1H-indol-5-yloxy)-N-[(3-nitro-4-{[3-(3-oxopiperazin-1-yl)propyl]amino}phenyl)sulfonyl]benzamide] the “Binding selectivity ratio” value was 1275.3. In the case of `O=C(NS(=O)(=O)c1ccc(OCC2CCOCC2)c([N+](=O)[O-])c1)c1ccc(N2CCN(Cc3ccc(C(F)(F)F)cc3-c3ccc(Cl)cc3)CC2)cc1Oc1ccc2[nH]ccc2c1` [EXAMPLE 340, 4-(4-{[4′-chloro-5-(trifluoromethyl)-1,1′-biphenyl-2-yl]methyl}piperazin-1-yl)-2-(1H-indol-5-yloxy)-N-{[3-nitro-4-(tetrahydro-2H-pyran-4-ylmethoxy)phenyl]sulfonyl}benzamide], the “Binding selectivity ratio” value is reported as >86.9. In the case of `CN(C)CC(=O)N1CCO[C@@H](COc2ncc(S(=O)(=O)NC(=O)c3ccc(N4CCN(CC5=C(c6ccc(Cl)cc6)CC(C)(C)CC5)CC4)cc3Oc3cccc4[nH]ncc34)cc2Cl)C1` [compound 426, N-[(5-chloro-6-{[(2R)-4-(N,N-dimethylglycyl)morpholin-2-yl]methoxy}pyridin-3-yl)sulfonyl]-4-(4-{[2-(4-chlorophenyl)-4,4-dimethylcyclohex-1-en-1-yl]methyl}piperazin-1-yl)-2-(1H-indazol-4-yloxy)benzamide], the “Binding selectivity ratio” value is reported as 604.2. In the case of `CC1(C)CCC(CN2CCN(c3ccc(C(=O)NS(=O)(=O)c4ccc(OCC5(C)COC5)c([N+](=O)[O-])c4)c(Oc4ccc5[nH]ccc5c4)c3)CC2)=C(c2ccc(Cl)cc2)C1` [EXAMPLE 286, 4-(4-{[2-(4-chlorophenyl)-4,4-dimethylcyclohex-1-en-1-yl]methyl}piperazin-1-yl)-2-(1H-indol-5-yloxy)-N-({4-[(3-methyloxetan-3-yl)methoxy]-3-nitrophenyl}sulfonyl)benzamide], the “Binding selectivity ratio” value is reported as >1165.0. In the case of `CC1(C)CCC(CN2CCN(c3ccc(C(=O)NS(=O)(=O)c4ccc(NN5CCCCC5)c([N+](=O)[O-])c4)c(Oc4ccc5[nH]ccc5c4)c3)CC2)=C(c2ccc(Cl)cc2)C1` [EXAMPLE 284, 4-(4-{[2-(4-chlorophenyl)-4,4-dimethylcyclohex-1-en-1-yl]methyl}piperazin-1-yl)-2-(1H-indol-5-yloxy)-N-{[3-nitro-4-(piperidin-1-ylamino)phenyl]sulfonyl}benzamide], the “Binding selectivity ratio” value is reported as >425.2. `CC1(C)CCC(CN2CCN(c3ccc(C(=O)NS(=O)(=O)c4ccc(NCCCn5ccnc5)c([N+](=O)[O-])c4)c(Oc4ccc5[nH]ccc5c4)c3)CC2)=C(c2ccc(Cl)cc2)C1` [EXAMPLE 377, 4-(4-{[2-(4-chlorophenyl)-4,4-dimethylcyclohex-1-en-1-yl]methyl}piperazin-1-yl)-N-[(4-{[3-(1H-imidazol-1-yl)propyl]amino}-3-nitrophenyl)sulfonyl]-2-(1H-indol-5-yloxy)benzamide] was tested, and the “Binding selectivity ratio” value was 2317.4. For `CC(C)(C)c1ccc(CN2CCN(c3ccc(C(=O)NS(=O)(=O)c4ccc(NC5CCN(C6CCOCC6)CC5)c([N+](=O)[O-])c4)c(Oc4ccc5[nH]ccc5c4)c3)CC2)c(-c2ccc(Cl)cc2)c1` [EXAMPLE 359, 4-{4-[(5-tert-butyl-4′-chloro-1,1′-biphenyl-2-yl)methyl]piperazin-1-yl}-2-(1H-indol-5-yloxy)-N-({3-nitro-4-[(1-tetrahydro-2H-pyran-4-ylpiperidin-4-yl)amino]phenyl}sulfonyl)benzamide], the “Binding selectivity ratio” value was >49.0.
